Experimental data published in US12281104B2, “Process for the production of ethyl 3-amino-1-[(3R,4S)-4-cyanotetrahydropyran-3-yl]pyrazole-4-carboxylate through chiral separation of a racemic mixture” (Intervet Inc., priority 2019, dated 2025).
Converted amounts (≈) assume the structure as drawn. Like-named read-outs stand apart in the source and are kept apart here.

Experiment: Solubility of Compound (V) in water and organic solvents
Format: physicochemical
Conditions: for solubility: read-out: Concentration in pure solvents (solubility)
Procedure: Example 1 Solubility of Compound (V) in Organic Solvents
The solubility of Compound (V) in water and in a set of organic solvents was determined.

SMILES: CCOC(=O)c1cn([C@H]2COCC[C@@H]2C#N)nc1N (racemic) [Compound (V), ethyl 3-amino-1-[(3R,4S)-4-cyanotetrahydropyran-3-yl]pyrazole-4-carboxylate and ethyl 3-amino-1-[(3S,4R)-4-cyanotetrahydropyran-3-yl]pyrazole-4-carboxylate]
- Solubility in words (acetonitrile): highly soluble
- solubility (acetonitrile (pure solvent), organic solvent or mixture): > 200000 µg/mL
- solubility (ethanol (pure solvent), organic solvent or mixture, EtOH): 10000 µg/mL (≈ 37.8 mM)
- solubility (isopropanol (pure solvent), organic solvent or mixture, iPrOH): < 5000 µg/mL
- solubility (methanol (pure solvent), organic solvent or mixture, MeOH): < 50000 µg/mL
- solubility (water (pure solvent), water): < 5000 µg/mL
